# Data as given in patent publication US20050085539A1, “Method of reducing toxicity of retinoids” (priority 2003, published 2005).
# Experiments:
# Type in all cases: in vivo, rat
# [1] = tested on: vitamin A-deficient rats; assay: Growth of vitamin A-deficient rats given the compounds orally in Wesson oil; details: daily oral dose (25 μg/day)
# [2] = tested on: vitamin A-deficient rats; assay: as above; details: for growth (weight change) of vitamin A-deficient rats: 83 pmoles/day oral in Wesson oil; for growth (weight change) of vitamin A-deficient rats / growth response of vitamin A-deficient rats: 5-day period; for activity relative to atRA in supporting growth of vitamin A-deficient rats: estimate from FIG. 4, 83 pmole/day, 5 days; for growth response of vitamin A-deficient rats: 166 pmoles/day oral in Wesson oil
# Text: The first test was to determine if the esterified compounds when given orally could restore normal growth of vitamin A-deficient rats. For this study, Sprague-Dawley, weanling rats were obtained from Harlan (Indianapolis, Ind.). They were fed the purified vitamin A-deficient diet previously described (Suda et al., 1970, J. Nutr. 100:1049-1052) supplemented with vitamins D, E and K (White et al., 1998, Proc. Natl. Acad. Sci. USA 95:13459-13464). When the animals stopped growing and began to lose weight, they were administered the indicated doses per day dissolved in Wesson oil. Controls were given the Wesson oil alone (vehicle group). The weight change over the 5-day study period was analyzed by ANOVA, followed by a matrix of pairwise comparison probabilities using four post-hoc tests when the overall P value was less then 0.05. The post-hoc comparison tests included: Turkey HSD multiple comparisons, Sheffe test, Fisher's least-significant-difference test and the Bonferroni adjustment test.
# Weanling male rats were obtained from the Harlan Company and were housed individually in hanging wire cages and fed the vitamin A-deficient diet described previously (Suda et al., 1970, J. Nutr. 100:1049-1052). At approximately 70 days of age, the animals began to show a leveling off of growth and began to show weight loss. At this time, they were used for the following studies: They were given either 0.1 ml of Wesson oil (vehicle) or the indicated dose of atRA dissolved in the vehicle or one of the derivatives at the indicated dose dissolved in the vehicle. Body weights were recorded daily and plotted as cumulative weight gain or loss over the study period as indicated on the graphs. A daily dose of 83 pmoles (25 μg/day) of atRA is near the minimum amount needed to produce normal growth in […] rats as compared to the vehicle controls that continue to lose weight (FIG. 1). […] When the dose was increased to 50 μg/day of atRA or 59.5 μg/day of the t-butyl derivative, as expected, the growth response was identical.
# [3] = tested on: normal male rats; assay: Acute toxicity of atRA versus t-butyl-RA in normal male rats
# Experimental: Two independent toxicity studies were carried out with the t-butyl-RA derivative. […] However, the difference in testes weights between the atRA and t-butyl-RA groups was not statistically significant due to rather large biological variability.
# We next examined the actute toxicity of the t-butyl derivative as compared to the atRA derivative in two independent trails. In these experiments, normal male rats weighing approximately 250-300 grams were used. They were individually housed in cages and given Purina lab chow as well as water ad libitum. […] This is an extremely large dose, and represents at least 3,600 times the amount of the t-butyl derivative needed to support a physiological growth response in vitamin A-deficient rats. […] Another indication of toxicity is testes weight as illustrated in FIG. 7.
# [4] = 1 mmole/kg/day for 5 days, second study (FIG. 6)
SMILES,daily dose near the minimum amount needed to produce normal growth [1],growth (weight change) of vitamin A-deficient rats [2],activity relative to atRA in supporting growth of vitamin A-deficient rats [2],"apparent toxicity / outward symptoms [3, 4]","body weight change [3, 4]","body weight change ([3]; 1 mmole/kg/day, 7 days, first study (FIG. 5))",growth response of vitamin A-deficient rats [2],growth response of vitamin A-deficient rats ([2]; listed as t-butyl derivative)
"CC1=C(/C=C/C(C)=C/C=C/C(C)=C/C(=O)O)C(C)(C)CCC1 [atRA, all-trans-retinoic acid, reference compound]",~83 nmol,superior to that of the cholesterol ester-fed group,,,,,,
"CC1=C(/C=C/C(C)=C/C=C/C(C)=C/C(=O)O[C@H]2CC[C@@]3(C)C(=CCC4C3CC[C@@]3(C)C4CC[C@@H]3[C@H](C)CCCC(C)C)C2)C(C)(C)CCC1 (stereo partly drawn) [cholesterol ester, all-trans-retinoic acid cholesterol ester]",,significantly enhanced growth compared to vehicle control animals,one-third,,,,,
"CC1=C(/C=C/C(C)=C/C=C/C(C)=C/C(=O)OC(C)(C)C)C(C)(C)CCC1 [t-butyl-RA, all-trans-retinoic acid tert-butyl ester]",,did not differ significantly from that of the group fed an equal molar amount of atRA,equal to atRA in potency and efficacy,no apparent toxicity,equal body weight accumulation,enabled continued growth,equivalent,identical
